Measured values published in US20230201221A1, “USE OF TERPENOIDS IN THE TREATMENT OR PREVENTION OF FIBROTIC DISEASES” (ARJIL BIOTECH HOLDING COMPANY LIMITED, priority 2020, published 2023).

What was measured:
Format in all cases: in vivo
ICR mice [1] = assay: Bleomycin-induced pulmonary fibrosis in mice: body weight, lung weight, lung index
Method: (§1) Specific pathogen-free ICR mice (males) (body weights 18-22 g) were purchased from the BioLASCO Taiwan Co., Ltd. (Taipei, Taiwan). The animals were housed in Plexiglas cages at a constant temperature of 22±1° C. and a relative humidity of 55±5% on a 12 h dark-light cycle for at least 2 weeks before the experiment. Animals were provided food and water ad libitum. All experimental procedures were performed according to the guidelines of the Institutional Animal Ethics Committee, and the protocol was approved by the Committee for the Purpose of Control and Supervision of Experiments on Animals.
(§2) Mice were divided into fifth groups with 5 animals per group according to body weight: control group, BLM group, BLM+DEX group (7.5 mg/kg), BLM+ACH dosage group (50 mg/kg), and BLM+ACM dosage group (25 mg/kg), BLM+ACH dosage group (50 mg/kg), and BLM+ACM dosage group (25 mg/kg) BLM+AH dosage group (50 mg/kg), and BLM+AM dosage group (25 mg/kg) BLM+BH dosage group (50 mg/kg), and BLM+BM dosage group (25 mg/kg) BLM+CH dosage group (50 mg/kg), and BLM+CM dosage group (25 mg/kg) BLM+DH dosage group (50 mg/kg), and BLM+DM dosage group (25 mg/kg) BLM+EH dosage group (50 mg/kg), and BLM+EM dosage group (25 mg/kg) BLM. Pulmonary fibrosis (PF) was established in mice via a single intratracheal administration of BLM at 7.5 mg/kg mg/kg body weight. Different doses of samples were intragastrically administered daily for 21 days after BLM injury, and DEX was used as the positive control. Control and model groups received an equal volume of vehicle (0.9% NaCl) using the same schedule and route of administration.
Mouse body weights were recorded daily. Mice were sacrificed on the 21th day using excess chloral hydrate hydrochloride anesthesia. Blood was obtained for ELISA analyses, and whole lungs were removed and weighed. The right lungs were fixed in 10% formalin, dehydrated, and embedded in paraffin. The left lungs were used to determine hydroxyproline. The pulmonary coefficient was calculated using the following equation: lung weight/body weight×100%
1. Group I: control; 2. Group II: mice received single intraperitoneal injection of BLM (7.5 mg/kg BW) 3. Group III: single dose (ACH, 0.5 g/kg) 4. Group IV: Single dose (ACM, 1.0 g/kg) 5. […] Group VII: purified AR101-DS2 (50 mg/kg) 8. Group VIII: purified AR101-DS2 (25 mg/kg) 7. Group VII: purified AR101-DS4 (50 mg/kg) 8. Group VIII: purified AR101-DS4 (25 mg/kg) 7. […] Group VII: purified ARH013-RA1 (50 mg/kg) 8. Group VIII: purified ARH013-RA1 (25 mg/kg)

C57BL/6 mice = assay: Cisplatin-induced renal injury in mice: serum CRE and BUN; conditions: extracts at 1000 mg/kg; compared to cisplatin-stimulated group, p<0.001
Method: Determination of biochemical parameters Serum creatinine and serum urea are assessed using colorimetric kits according to manufacturer's instructions. Kits of the former markers are purchased from (HUMAN Diagnostics Worldwide, Magdeburg, Germany) with a chemical analyzer (Roche Diagnostics, Cobas Mira Plus, Rotkreuz, Switzerland).
as §1, with “Seven-to-eight-week-old male C57BL/6” for “Specific pathogen-free ICR”, “are obtained” for “(males) (body weights 18-22 g) were purchased”, “are” for “were”, “is” for “was”
Renal fibrosis is induced via multiple injections of low-dose cisplatin. Intraperitoneal injections of cisplatin (5 mg/kg/injection; P4394, Sigma-Aldrich, St Louis, Mo.) are performed at 0, 1, and 3 weeks, for a total of 3 injections. Mice are sacrificed at 6 weeks after the first dose of cisplatin (n=6). To analyze the effects of samples, mice are given daily intraperitoneal injections for 7 days, starting from 4 weeks after first dose of cisplatin, and sacrificed at […] (n=6).

ICR mice [2] = assay: Bleomycin-induced pulmonary fibrosis in mice: lung hydroxyproline content; conditions: extract 1.0 g/kg; AH, BH, DH 50 mg/kg; p<0.001
Method: as §2
The contents of hydroxyproline were analyzed in lung tissue following the instruction of hydroxyproline assay kit (Biosource International Inc., Sunnyvale, Calif., USA). The pulmonary tissues of mice were ground and homogenized with 1 ml of 6 mol/L […] solution, hydrolyzed at 95° C. for 5 hours, and the pH value was adjusted to 6.0-6.8. According to the instructions, the corresponding reagents were added to the reaction system and mixed thoroughly and then incubated for 15 minutes at 60° C. After cooling, the supernatants were collected after centrifuging at 3500 rpm for 10 minutes. The absorbance value of the supernatant from the samples was measured at 550 nm by a spectrophotometer and calculated for the contents of hydroxyproline on each group.

[3] = test system: TNF-α, IL-1β, IL-6 and TGF-β; assay: Bleomycin-induced pulmonary fibrosis in mice: pro-inflammatory cytokines by ELISA; conditions: extract 1.0 g/kg; BH, DH 50 mg/kg; after BLM challenge; p<0.001
Method: as §2, with “administration. […]” for “administration.”
The serum concentration of the pro-inflammatory cytokines (i.e. tumor necrosis factor-α (TNF-α), interleukin-6 (IL-6), and IL-1β) in serum were assessed with relevant enzyme-linked immunosorbent assay (ELISA) kits (Biosource International Inc., Sunnyvale, Calif., USA), based on the manufacturer's instructions.

MPO = assay: Bleomycin-induced pulmonary fibrosis in mice: lung myeloperoxidase (MPO) assay; conditions: compared with BLM group, p<0.001
Method: as §2
The pulmonary MPO activity was a reliable index for estimating the infiltration of inflammatory cells in lungs. The lung tissues were homogenized and the MPO levels were detected with the kits according to manufacturer's instruction.

[4] = 25 mg/kg intragastric daily for 21 days after BLM
[5] = 50 mg/kg intragastric daily for 21 days after BLM

In the case of C=C1C(=O)O[C@H]2/C=C(\C)CC3C=C(CC/C=C(\C)CC[C@H]12)C(=O)O3 (some centres unmarked) [AR100-DS1, Ovatodiolide], the Final body mass (ICR mice [1]; [4]) is reported as 37.33 ± 0.25 g, the Pulmonary mass (ICR mice [1]; [4]) is reported as 0.52 ± 0.02 g and the Final body mass (ICR mice [1]; [5]) is reported as 39.12 ± 0.30 g. The Pulmonary mass (ICR mice [1]; [5]) was 0.39 ± 0.01 g, the “renal protection: normalization of serum CRE and BUN” value (C57BL/6 mice) was “significant renal protection effect” and the “hydroxyproline (HP) content in lung tissue” value (ICR mice [2]) was “reduced lung HP”. The “TNF-α, IL-1β, IL-6 and TGF-β production” value [3] was “improved TNF-α, IL-1β, IL-6 and TGF-β production” and the “lung MPO activity” value (MPO) was “evidently suppressed the MPO activities”.
